Measurements as given in paper PMC10714399, “Open Source Antibiotics: Simple Diarylimidazoles Are Potent against Methicillin-Resistant Staphylococcus aureus” (ACS Infectious Diseases, 2023).
Converted amounts (≈) assume the structure as drawn. “And” between values parts separate entries of the source, which are not always exact repeats. Equal values may be shown once. Read-outs that look alike come from different tables or passages of the source.

Assays:
[1] = Human plasma protein binding (PPB); type: in vitro ADME; settings: human, plasma, human plasma, NEU
From the text: (§1) To guide our initial SAR exploration work, we obtained liver microsomal intrinsic clearance data for 5 of the 18 compounds assayed by CO-ADD (Supporting Information - CDCO Report and Supporting Information - Biology). We then acquired intrinsic clearance (CLint), plasma protein binding (PPB), and solubility data on further compounds throughout the SAR campaign (Supporting Information - Biology, Tables S3 and S4).
(§2) Table S4. ADME and Pharmacokinetics: compounds only appearing in the Supplementary […]
(§3) MRSA Aqueous HLM CLint Rat Hep CLint
(§4) Cmpd MIC Solubility Human PPB (%) (µL/min/mg (µL/min/10x6 LogD7.4
(§5) (µg/mL) (µM) protein) cells)
(§6) ADME and toxicity for compounds were measured according to procedures outlined in the manuscript submitted in parallel to this one;2 other procedures were used for those compounds analysed by Monash University (in vitro ADME) or UCL (toxicity), both described in the main

[2] = Rat hepatocyte intrinsic clearance; type: in vitro ADME
From the text: as §1, §2, §3, §4, §5, §6

LogD7.4 (Chrom Log D) = type: physicochemical
From the text: as §1, with “S4). […] The more polar compounds (lower LogD) had reduced PPB and were more metabolically stable.” for “S4).”
as §2, §3, §4, §5, §6

[3] = tested on: S. aureus ATCC 25923 (methicillin-susceptible); test: In vitro antibacterial activity, MIC (UCL), MSSA; type: cell-based, Staphylococcus aureus; settings: Staphylococcus aureus
Summary of the method: (§7)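 Each organism was taken from overnight tryptone soya agar, suspended in PBS at A600 0.1, diluted 1:100 in isosensitest broth and added to serially diluted compound (32 to 0.03 μg/mL).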

[4] = tested on: Staphylococcus aureus NCTC 13373 (mecA-positive; methicillin-resistant); test: In vitro antibacterial activity, MIC (UCL School of Pharmacy assay), MRSA; type: cell-based; settings: for MIC: Staphylococcus aureus
Summary of the method: as §7

[5] = Human liver microsome intrinsic clearance; type: in vitro ADME
From the text: as §1, §2, §3, §4, §5, §6

Aqueous solubility = type: physicochemical; settings: for solubility: thermodynamic from solid
From the text: as §1, with “S4). […] The more polar compounds (lower LogD) had reduced PPB and were more metabolically stable.” for “S4).”
as §2, §3, §4, §5, §6

[6] = tested on: PMM (primary mouse macrophages); test: Toxicity against PMM; type: cell-based
Protocol: as §6

[7] = tested on: MRC-5SV2 (human lung fibroblast cell line); test: Toxicity against MRC-5SV2; type: cell-based
Protocol: as §6

[8] = tested on: Enterococcus faecalis ATCC 51299 (vanA-positive; vancomycin-resistant); test: In vitro antibacterial activity, MIC (UCL), VRE; type: cell-based
Summary of the method: as §7

VSE = test: In vitro antibacterial activity, MIC, VSE; type: cell-based; settings: read-out: VSE MIC (UCL)
[9] = read-out: Human PPB (NEU) (converted)
[10] = rat hepatocytes, NEU, read-out: Rat Hep CLint (NEU)
[11] = chromatographic system (Chrom Log D), pH 7.4, NEU, read-out: LogD 7.4 (NEU)
[12] = human liver microsomes, NEU, read-out: HLM CLint (NEU)
[13] = NEU, read-out: Aqueous Solubility (NEU)
[14] = read-out: Human PPB (%) (NEU) (converted)
[15] = rat hepatocytes, NEU, read-out: Rat Hep CLint (uL/min/10x6 cells) (NEU)
[16] = UCL assay, read-out: MSSA MIC (ug/mL) (UCL)
[17] = UCL assay, read-out: MRSA MIC (ug/mL) (UCL)
[18] = NEU, read-out: Aqueous Solubility (uM) (NEU)
[19] = human liver microsomes, NEU, read-out: HLM CLint (uL/min/mg protein) (NEU)

| Structure (SMILES) | fraction unbound [1, 9] | hepatocyte CLint [2, 10] [µL/min/1e6 cells] | chromatographic logD (LogD7.4 (Chrom Log D); [11]) | MIC ([3]; read-out: MSSA MIC (UCL)) [µg/mL] | MIC ([4]; UCL, read-out: MRSA MIC (UCL)) [µg/mL] | microsomal CLint [5, 12] [µL/min/mg] | solubility (Aqueous solubility; [13]) [µM] | MRC5 TC50 ([7]; MRC5 cells) | MIC ([8]; read-out: VRE MIC (UCL)) [µg/mL] | fraction unbound [1, 14] | hepatocyte CLint [2, 15] [µL/min/1e6 cells] | MIC [3, 16] [µg/mL] | MIC [4, 17] [µg/mL] | solubility (Aqueous solubility; [18]) [µM] | also measured |
| --- | --- | --- | --- | --- | --- | --- | --- | --- | --- | --- | --- | --- | --- | --- | --- |
| COc1cccn2c(N(C)c3ccc(F)cc3)c(-c3ccccn3)nc12 [OSA_001001] | 0.026 | > 300 | 3.5 | 16 (≈ 45.9 µM) | 16 (≈ 45.9 µM) | 65.9 | 26 (≈ 9.06 µg/mL) | – | – | – | – | – | – | – | – |
| Fc1ccc(-c2c(-c3ccccn3)nc3ccccn23)cc1 [compound 859] | – | – | – | – | – | – | – | – | – | – | – | – | – | – | PMM TC50 [6]: 9.3 µg/mL; MRC5 TC50 [7]: 3.0 µg/mL; hepatocyte CLint ([2]; rat, hepatocytes, Figure 4, read-out: Rat Hep CLint): 49.8 µL/min/1e6 cells; chromatographic logD (LogD7.4 (Chrom Log D); pH 7.4, read-out: LogD7.4): 3; MIC ([8]; read-out: VRE MIC): > 32 µg/mL; activity against MRSA, in words [4]: inactive; MIC ([4]; 16 h, read-out: MRSA MIC): > 32 µg/mL; MIC ([4]; read-out: MRSA MIC): 32 µg/mL (≈ 111 µM); microsomal CLint ([5]; human, liver microsomes, read-out: HLM CLint): 168 µL/min/mg; solubility (Aqueous solubility; read-out: Aqueous Solubility): 178 µM (≈ 51.5 µg/mL) |
| Fc1ccc(Nc2c(-c3ccccn3)nc3ccccn23)cc1 [OSA_000987] | 0.017 | 151 | 3.3 | 16 (≈ 52.6 µM) | 8 (≈ 26.3 µM) | 148 | 0.5 (≈ 0.152 µg/mL) | 7.65 µM and 6.04 µM | 32 (≈ 105 µM) | – | – | – | – | – | MIC (VSE): 32 µg/mL (≈ 105 µM) |
| CS(=O)(=O)c1ccc2nc(-c3ccccn3)c(Nc3ccc(F)cc3)n2c1 [OSA_001020] | – | – | 2.4 | – | – | – | – | 64 µM | – | 0.11 | > 300 | > 32 | > 32 | 5 (≈ 1.91 µg/mL) | PMM TC50 ([6]; PMM): 32 µM; HLM CLint (uL/min/mg protein) (NEU) ([5]; human liver microsomes, NEU): 92 uL/min/mg protein |
| Cc1ccc(-c2c(-c3ccccn3)nc3ccccn23)cc1 [OSA_001018] | 0.011 | – | 3.3 | 4 (≈ 14 µM) | 4 (≈ 14 µM) | – | – | – | – | – | – | – | – | – | Rat Hep CLint (NEU) ([2]; rat hepatocytes, NEU): 57.7 uL/min/10x6 cells; HLM CLint (NEU) ([5]; human liver microsomes, NEU): 122 uL/min/mg protein; Aqueous Solubility (NEU) (Aqueous solubility; NEU): 43 µM |
| CC(C)CN(c1ccc(F)cc1)c1c(-c2ccccn2)nc2cc(F)ccn12 [OSA_001023] | – | – | 4.3 | – | – | – | – | – | – | 0.0023 | 110 | 4 (≈ 10.6 µM) | 8 (≈ 21.1 µM) | 11 (≈ 4.16 µg/mL) | microsomal CLint [5, 19]: 13.6 µL/min/mg |
| CCN(CC)c1ccc(-c2c(-c3ccccn3)nc3ccccn23)cc1 [OSA_001011] | 0.004 | 192 | 4.3 | 4 (≈ 11.7 µM) | 4 (≈ 11.7 µM) | 159 | 38 (≈ 13 µg/mL) | – | – | – | – | – | – | – | – |
| COc1ccn2cc(-c3ccccn3)nc2c1 [OSA_000856] | 0.21 | – | 2.2 | – | > 32 | > 300 | 723 (≈ 163 µg/mL) | 51.6 µM | > 32 | – | – | – | – | – | PMM TC50 ([6]; PMM): 64 µM; Rat Hep CLint (NEU) ([2]; rat hepatocytes, NEU): 52.9 uL/min/10x6 cells |
| COc1ccc2nc(-c3ccccn3)c(N(C)c3cc(F)cc(F)c3)n2c1 [OSA_000998] | 0.0085 | > 300 | 4 | 8 (≈ 21.8 µM) | 8 (≈ 21.8 µM) | 100 | 8 (≈ 2.93 µg/mL) | – | 32 (≈ 87.3 µM) | – | – | – | – | – | MIC (VSE): 16 µg/mL (≈ 43.7 µM) |
| CC(C)CN(c1ccc(F)cc1)c1c(-c2ccccn2)nc2ccc(F)cn12 [OSA_001024] | – | – | > 4.2 | – | – | – | – | – | – | 0.0014 | 117 | 8 (≈ 21.1 µM) | 8 (≈ 21.1 µM) | 17 (≈ 6.43 µg/mL) | microsomal CLint [5, 19]: 51.2 µL/min/mg |
